Literature values, collected in US10363219B2, “Method of preparing albumin nanoparticle carrier wrapping taxane drug” (Zhejiang Academy of Forestry, priority 2016, dated 2019).

Details: relative to paclitaxel

CC(=O)O[C@@]12CO[C@@H]1C[C@H](O)[C@@]1(C)C(=O)[C@H](O)C3=C(C)[C@@H](OC(=O)[C@H](O)[C@@H](NC(=O)OC(C)(C)C)c4ccccc4)C[C@@](O)([C@@H](OC(=O)c4ccccc4)[C@H]21)C3(C)C [Docetaxel]
cytotoxic effect, times of that of paclitaxel: 1.3-12 times
